The test deals with T1, recombinant autotaxin (Homo sapiens, UniProt Q13822).
T1 construct: made in house; host or cells: Hi5 insect cells (baculovirus)
The test can be described thus: Autotaxin assay (Amplex Red, LPC substrate). It is filed as biochemical. Particulars: 75 μM LPC, Amplex Red fluorescence, ten 1:3 dilutions starting at 30 μM. On the procedure:
Autotaxin activity is measured indirectly by means of Amplex Red Reagent. In this course, Amplex Red is measured as fluorogenic indicator for generated H2O2. Autotaxin converts substrate lysophosphatidylcholine (LPC) to phosphocholine and lysophosphatidylic acid (LPA). After the conversion phosphocholine is reacted with alkaline phosphatase to obtain inorganic phosphate and choline. During the next step choline is oxidized with choline oxidase to yield betaine, whereby H2O2 is generated. H2O2 reacts with Amplex Red Reagent in the presence of peroxidase (Horseradish peroxidase) in an 1:1 stochiometry and yields highly fluorescent resorufin. The generated fluorescence is measured in a reaction-dependent kinetic mode in order to enable subtraction of fluorescence signals of possible other fluorescent compounds that are not part of the reaction from total measured fluorescence.
1.5 μl of a standard solution or of the compounds of the invention are dissolved in 20 mM Hepes pH 7.2 with maximally 7.7% DMSO in individual concentrations. The resulting solution is pre-incubated together with 10 μl (16 ng) of highly purified recombinant autotaxin in a black 384-hole microtiter plate for 30 min at 22° C. Thereafter, the reaction is started through the addition of 5 μL-a-lysophosphatidylcholine (LPC), whereby the final concentration of LPC is 75 μM. The mixture is incubated for 90 min. at 37° C. After the incubation Amplex Red Reagent, peroxidase (Horseradish peroxidase) and choline oxidase are added. The fluorescence is immediately measured at a wavelength of 612 nm with an excitation wavelength of 485 nm in a “Tecan Ultra multimode” fluorescence reader. The activity of autotaxin is indirectly calculated via the amount of detected generated H2O2.
For IC50 analysis, ten serial 1:3 dilutions starting at 30 μM for each compound were run in duplicates.
IC50 values were calculated on normalized data. For normalization, control wells were added to each assay plate and the signal of uninhibited control wells was set to 100%, whereas the signal inhibited by 500 μM C14 LPA, (Avanti Polar Lipids, Cat# 857120P) was set to 0%. Curves were fitted and IC50 values calculated by the following model using proprietary analysis software: Y=Bottom+(100−Bottom)/(1+10^((LogIC50−X)*HillSlope))
Where X is the logarithm of concentration. Y is the response; Y starts at Bottom and goes to Top with a sigmoid shape.
Protein: Recombinant autotaxin (baculoviral Hi5 expression)
Substrate: L-a-lysophosphatidyl choline (chicken egg); Avanti Polar Lipids #830071 P
Standard: C14 LPA, Avanti Polar Lipids, Cat# 857120P
Detection Reagent Amplex Red Reagent; Invitrogen #A12222; dissolved in 1.923 ml of DMSO peroxidase Type VI-A (horseradish), Sigma #P6782; dissolved in 7.45 ml of test buffer, Choline Oxidase; Sigma #C5896; dissolved in 2.47 ml test buffer
Detection Reagent Mix: 1:100 dilution of Amplex Red Regent in test buffer
Test buffer: 200 mM Tris-HCl, Merck, Cat # 1.08219, pH 7.9; 0.1% BSA, lipid free, Roche Cat#775835

Broadly, the IC50 is the concentration that gives 50% inhibition. On to `COc1ccc(Nc2nccc3nc(NCc4ccc(F)cc4)ncc23)cc1OC` [Compound 27, N5-(3,4-Dimethoxy-phenyl)-N2-(4-fluoro-benzyl)-pyrido[4,3-d]pyrimidine-2,5-diamine], for which the IC50 was under 30 µM. For `O=C(NCc1cccnc1)C1CCCN(c2nccc3nc(NCc4ccccc4Cl)ncc23)C1` (stereo not shown) [Compound 81, 1-[2-(2-Chloro-benzylamino)-pyrido[4,3-d]pyrimidin-5-yl]-piperidine-3-carboxylic acid (pyridin-3-ylmethyl)-amide], the IC50 is under 5 µM. As for `Cc1ccccc1Nc1nccc2nc(NCc3ccc(Cl)cc3)ncc12` [Compound 43, N2-(4-Chloro-benzyl)-N5-o-tolyl-pyrido[4,3-d]pyrimidine-2,5-diamine], the IC50 is under 30 µM. In the case of `O=C(NCc1ccc(F)cc1Cl)C1CCN(c2nccc3nc(NCc4ccccc4Cl)ncc23)CC1` [Compound 144, 1-[2-(2-Chloro-benzylamino)-pyrido[4,3-d]pyrimidin-5-yl]-piperidine-4-carboxylic acid 2-chloro-4-fluoro-benzylamide], the IC50 was under 30 µM. `COc1ccc(CNc2ncc3c(Nc4cc(OC)ccc4OC)nccc3n2)cc1` [Compound 51, N5-(2,5-Dimethoxy-phenyl)-N2-(4-methoxy-benzyl)-pyrido[4,3-d]pyrimidine-2,5-diamine]: the IC50 was under 30 µM. In the case of `Cc1cc(F)ccc1Nc1nccc2nc(NCc3ccc(F)cc3)ncc12` [Compound 28, N2-(4-Fluoro-benzyl)-N5-(4-fluoro-2-methyl-phenyl)-pyrido[4,3-d]pyrimidine-2,5-diamine], the IC50 is under 30 µM. In the case of `Clc1ccccc1CNc1ncc2c(N3CCN(c4ncccn4)CC3)nccc2n1` [Compound 112, (2-Chloro-benzyl)-[5-(4-pyrimidin-2-yl-piperazin-1-yl)-pyrido[4,3-d]pyrimidin-2-yl]-amine], the IC50 is under 30 µM. In the case of `COc1ccc(CNc2ncc3c(N4CCCC(C(=O)N5CCN(c6ccccn6)CC5)C4)nccc3n2)cc1` (stereo not shown) [Compound 95, {1-[2-(4-Methoxy-benzylamino)-pyrido[4,3-d]pyrimidin-5-yl]-piperidin-3-yl}-(4-pyridin-2-yl-piperazin-1-yl)-methanone], the IC50 was under 30 µM.

With `COc1ccc(CNc2ncc3c(Nc4ccc(C#N)cc4)nccc3n2)cc1` [Compound 57, 4-[2-(4-Methoxy-benzylamino)-pyrido[4,3-d]pyrimidin-5-ylamino]-benzonitrile], the IC50 was under 30 µM. As for `Fc1ccc(Nc2nccc3nc(NCc4ccc(Cl)cc4)ncc23)cc1F` [Compound 48, N2-(4-Chloro-benzyl)-N5-(3,4-difluoro-phenyl)-pyrido[4,3-d]pyrimidine-2,5-diamine], the IC50 was under 30 µM. Then `COc1ccc(CNc2ncc3c(Nc4ccc(F)cc4F)nccc3n2)cc1` [Compound 52, N5-(2,4-Difluoro-phenyl)-N2-(4-methoxy-benzyl)-pyrido[4,3-d]pyrimidine-2,5-diamine], with under 30 µM; and `c1ccc(CNc2ncc3c(N4CCCC4)nccc3n2)cc1` [Compound 1, Benzyl-(5-pyrrolidin-1-yl-pyrido[4,3-d]pyrimidin-2-yl)-amine], with under 30 µM; and `Clc1ccccc1CNc1ncc2c(NCc3cccnc3)nccc2n1` [Compound 11, N2-(2-Chloro-benzyl)-N5-pyridin-3-ylmethyl-pyrido[4,3-d]pyrimidine-2,5-diamine], with under 30 µM.

Consider `CC(=O)N1CCN(c2nccc3nc(NCc4ccccc4Cl)ncc23)CC1` [Compound 115, 1-{4-[2-(2-Chloro-benzylamino)-pyrido[4,3-d]pyrimidin-5-yl]-piperazin-1-yl}-ethanone], for which the IC50 is under 30 µM. With `Clc1ccccc1CNc1ncc2c(N3CCN(c4nccs4)CC3)nccc2n1` [Compound 109, (2-Chloro-benzyl)-[5-(4-thiazol-2-yl-piperazin-1-yl)-pyrido[4,3-d]pyrimidin-2-yl]amine], the IC50 was under 10 µM. In the case of `Cc1ccc(CNc2ncc3c(N4CCCC(C(=O)Nc5cccnc5)C4)nccc3n2)cc1` (stereo not shown) [Compound 93, 1-[2-(4-Methyl-benzylamino)-pyrido[4,3-d]pyrimidin-5-yl]-piperidine-3-carboxylic acid pyridin-3-ylamide], the IC50 was under 30 µM.

As to `COc1ccc(Nc2nccc3nc(NCc4ccc(F)cc4)ncc23)cc1` [Compound 23, N2-(4-Fluoro-benzyl)-N5-(4-methoxy-phenyl)-pyrido[4,3-d]pyrimidine-2,5-diamine], the IC50 was under 30 µM.

Turning to `CCN(CC)C(=O)C1CCCN(c2nccc3nc(NCc4ccccc4Cl)ncc23)C1` (stereo not shown) [Compound 91, 1-[2-(2-Chloro-benzylamino)-pyrido[4,3-d]pyrimidin-5-yl]-piperidine-3-carboxylic acid diethylamide], the IC50 is under 30 µM.

Take `COc1ccc(CNc2ncc3c(Nc4ccc5c(c4)OCCO5)nccc3n2)cc1` [Compound 55, N5-(2,3-Dihydro-benzo[1,4]dioxin-6-yl)-N2-(4-methoxy-benzyl)-pyrido[4,3-d]pyrimidine-2,5-diamine]: the IC50 is under 30 µM. As for `Clc1ccccc1CNc1ncc2c(NCCc3ccccn3)nccc2n1` [Compound 146, N2-(2-Chloro-benzyl)-N5-(2-pyridin-2-yl-ethyl)-pyrido[4,3-d]pyrimidine-2,5-diamine], the IC50 was under 30 µM. `Fc1ccc(CNc2ncc3c(NCc4ccc5nonc5c4)nccc3n2)cc1` [Compound 29, N5-Benzo[1,2,5]oxadiazol-5-ylmethyl-N2-(4-fluoro-benzyl)-pyrido[4,3-d]pyrimidine-2,5-diamine]: the IC50 was under 30 µM. Regarding `COc1ccccc1CNc1ncc2c(Nc3ccc(C)cc3)nccc2n1` [Compound 36, N2-(2-Methoxy-benzyl)-N5-p-tolyl-pyrido[4,3-d]pyrimidine-2,5-diamine], the IC50 is under 30 µM. As to `c1ccc(CNc2ncc3c(Nc4ccc5c(c4)OCO5)nccc3n2)cc1` [Compound 5, N5-Benzo[1,3]dioxol-5-yl-N2-benzyl-pyrido[4,3-d]pyrimidine-2,5-diamine], the half-inhibitory concentration (IC50) is under 30 µM. Turning to `COc1ccc(Nc2nccc3nc(NCc4ccc(Cl)cc4)ncc23)cc1` [Compound 44, N2-(4-Chloro-benzyl)-N5-(4-methoxy-phenyl)-pyrido[4,3-d]pyrimidine-2,5-diamine], the IC50 is under 30 µM. Take `Cc1cc(F)ccc1Nc1nccc2nc(NCc3ccc(Cl)cc3)ncc12` [Compound 49, N2-(4-Chloro-benzyl)-N5-(4-fluoro-2-methyl-phenyl)-pyrido[4,3-d]pyrimidine-2,5-diamine]: the IC50 was under 30 µM. Take `CCCN1CCN(C(=O)C2CCN(c3nccc4nc(NCc5ccccc5Cl)ncc34)CC2)CC1` [Compound 97, {1-[2-(2-Chloro-benzylamino)-pyrido[4,3-d]pyrimidin-5-yl]-piperidin-4-yl}-(4-propyl-piperazin-1-yl)-methanone]: the IC50 was under 10 µM. Take `COc1ccc(CNc2ncc3c(Nc4ccc(OC)c(OC)c4)nccc3n2)cc1` [Compound 54, N5-(3,4-Dimethoxy-phenyl)-N2-(4-methoxy-benzyl)-pyrido[4,3-d]pyrimidine-2,5-diamine]: the IC50 was under 30 µM. `Clc1ccc(CNc2ncc3c(Nc4ccc5c(c4)OCO5)nccc3n2)cc1` [Compound 46, N5-Benzo[1,3]dioxol-5-yl-N2-(4-chloro-benzyl)-pyrido[4,3-d]pyrimidine-2,5-diamine]: the IC50 is under 30 µM. `Clc1ccccc1CNc1ncc2c(NCCCN3CCCC3)nccc2n1` [Compound 17, N2-(2-Chloro-benzyl)-N5-(3-pyrrolidin-1-yl-propyl)-pyrido[4,3-d]pyrimidine-2,5-diamine]: the 50% inhibitory concentration (IC50) is under 30 µM. Turning to `CN1CCN(C(=O)C2CCCN(c3nccc4nc(NCc5ccccc5Cl)ncc34)C2)CC1` (stereo not shown) [Compound 104, {1-[2-(2-Chloro-benzylamino)-pyrido[4,3-d]pyrimidin-5-yl]-piperidin-3-yl}-(4-methyl-piperazin-1-yl)-methanone], the IC50 was under 30 µM. For `CS(=O)(=O)CS(=O)(=O)N1CCN(c2nccc3nc(NCc4ccccc4Cl)ncc23)CC1` [Compound 156, (2-Chloro-benzyl)-[5-(4-methanesulfonylmethanesulfonyl-piperazin-1-yl)-pyrido[4,3-d]pyrimidin-2-yl]-amine], the IC50 was under 30 µM.

(Values after patent US8530650B2, “2, 5-diamino-substituted pyrido [4, 3-D] pyrimidines as autotaxin inhibitors against cancer” (MERCK PATENT GmbH, priority 2008, dated 2013).)
